Assay results: article PMC6915887, “Inhibition of human carboxylesterases by ginsenosides: structure–activity relationships and inhibitory mechanism” (Chinese Medicine, 2019)
Like-named read-outs stand apart in the source and are kept apart here.

What was measured:
Type in all cases: biochemical
[1] = target: T1, hCES1A (Homo sapiens, UniProt P23141); assay: hCES1A inhibition assay (DME hydrolysis in HLM);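 further: Read-out is D-luciferin luminescence formed from DME (3 µM) after 10 min at 37 °C in pH 6.5 PBS, HLM 1 µg/mL, inhibitor preincubated 3 min, oleanic acid as positive control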
T1 construct: tissue Bioreclamation IVT lot no; X008067; host or cells: pooled human liver microsomes (50 donors)
T1 sequence (P23141 18-567): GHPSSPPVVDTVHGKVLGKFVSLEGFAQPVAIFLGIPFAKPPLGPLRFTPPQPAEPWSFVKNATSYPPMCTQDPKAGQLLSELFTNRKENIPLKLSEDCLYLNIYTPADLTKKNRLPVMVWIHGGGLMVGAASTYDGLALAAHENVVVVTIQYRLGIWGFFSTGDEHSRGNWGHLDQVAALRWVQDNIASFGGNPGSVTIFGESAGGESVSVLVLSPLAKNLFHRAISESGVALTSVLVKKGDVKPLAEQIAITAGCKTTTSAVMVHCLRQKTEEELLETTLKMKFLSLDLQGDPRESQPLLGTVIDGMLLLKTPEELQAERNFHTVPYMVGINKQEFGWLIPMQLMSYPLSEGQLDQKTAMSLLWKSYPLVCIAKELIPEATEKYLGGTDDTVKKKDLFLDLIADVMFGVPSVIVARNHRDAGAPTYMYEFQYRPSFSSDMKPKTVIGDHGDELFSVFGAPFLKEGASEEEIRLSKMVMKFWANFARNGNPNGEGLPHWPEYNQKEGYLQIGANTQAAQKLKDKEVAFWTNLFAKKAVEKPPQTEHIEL
Method: DME hydrolysis was used as the probe reaction to assay the inhibitory effects of 25 ginsenosides against hCES1A, oleanic acid was used as a positive control of inhibition assays [43]. The incubation system contains 91 μL PBS (0.1 M pH 6.5), 5 μL HLM (1 μg/mL, final concentration) and 2 μL corresponding inhibitor. After pre-incubating the reaction mixture for 3 min at 37 °C, the reaction was started by adding 2 μL DME (3 μM, final concentration) with a total volume of 100 μL, in which the final content of DMSO was limited to 2% (v/v). After incubating for 10 min at 37 °C in a shaking bath, LDR (50 μL, equal volume of the incubation mixture) was added to terminate the reaction. The luminescence signals of D-luciferin (the hydrolytic metabolite of DME) was measured (excitation wavelength 580 nm) by a multi-mode microplate reader (SpectraMax® iD3, Molecular Devices, Austria).

[2] = target: T2, hCES2A (Homo sapiens, UniProt O00748); assay: hCES2A inhibition assay (FD hydrolysis in HLM); details: for inhibition of hCES2A-mediated FD hydrolysis (residual activity screen): HLM, ginsenoside 100 μM, result in words; for Specificity (hCES1A/hCES2A): ratio of IC50 values in HLM;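 on all read-outs here: HLM at 1 µg/mL in 0.1 M PBS pH 7.4, kinetic read at 37 °C every 30 s over 30 min, triplicate runs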
T2 construct: tissue Bioreclamation IVT lot no; X008067; host or cells: pooled human liver microsomes (50 donors)
T2 sequence (O00748 27-559): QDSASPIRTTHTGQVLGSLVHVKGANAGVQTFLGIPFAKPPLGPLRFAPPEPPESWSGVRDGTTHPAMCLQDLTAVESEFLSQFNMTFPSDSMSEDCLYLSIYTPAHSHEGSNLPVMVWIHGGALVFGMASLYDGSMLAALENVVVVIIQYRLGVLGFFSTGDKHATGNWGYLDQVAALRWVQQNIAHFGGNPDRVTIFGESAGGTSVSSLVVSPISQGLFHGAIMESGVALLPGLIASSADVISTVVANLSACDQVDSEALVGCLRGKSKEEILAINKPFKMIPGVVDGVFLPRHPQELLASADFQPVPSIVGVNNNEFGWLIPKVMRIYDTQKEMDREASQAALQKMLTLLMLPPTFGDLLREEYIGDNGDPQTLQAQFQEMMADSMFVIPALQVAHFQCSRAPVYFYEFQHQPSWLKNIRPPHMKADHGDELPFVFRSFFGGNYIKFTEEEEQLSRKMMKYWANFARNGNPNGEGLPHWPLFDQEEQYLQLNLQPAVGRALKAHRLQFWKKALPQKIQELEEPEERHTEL
Method: The incubation system contains 2 μL HLM (1 μg/mL, final concentration), 194 μL PBS (0.1 M pH 7.4) and 2 μL corresponding inhibitor. […] The kinetic parameters were set at 30 reads, with an interval of 30 s (30 min) and shake during 5 s before the first read at 37 °C.

[3] = target: T1, hCES1A; assay: Inhibition kinetic analyses of hCES1A-mediated DME hydrolysis in HLM
Method: According to the inhibition kinetics of both hCES1A and hCES2A, which were investigated by using varying concentrations of probe substrates in the presence of different concentrations of ginseng compounds (inhibitors), the inhibition constant (Ki) and inhibition kinetic types of ginsenosides were determined. The experimental details used to determine the inhibition constants have been reported previously.
All inhibition assays were performed in triplicate, nonlinear regression was used to determine the IC50 and Ki values with GraphPad Prism 7.0 software (GraphPad Software, Inc., La Jolla, USA).

[4] = target: T2, hCES2A; assay: Inhibition kinetic analyses of hCES2A-mediated FD hydrolysis in HLM
[5] = HLM as enzyme source, DME hydrolysis as probe reaction, read-out: IC50 (μM) hCES1A
[6] = HLM as enzyme source, FD hydrolysis as probe reaction, read-out: IC50 (μM) hCES2A

SMILES | IC50 [1, 5] | inhibition of hCES2A-mediated FD hydrolysis (residual activity screen) [2] | Specificity (hCES1A/hCES2A) [2] | Inhibition mode [3] | Ki [3] | Inhibition mode [4] | inhibition of hCES1A-mediated DME hydrolysis (residual activity screen) ([1]; HLM, ginsenoside 100 μM, result in words) | IC50 [2, 6] | Ki [4] | IC50 [1] | IC50 [2]
CC(C)=CCC[C@](C)(O)[C@H]1CC[C@]2(C)[C@@H]1CC[C@@H]1[C@@]3(C)CC[C@H](O)C(C)(C)[C@@H]3CC[C@]12C [DM, Dammarenediol II] | 1.99 ± 0.21 µM | strong or moderate inhibition | 3.06 | Competitive | 2100 nM | Mixed | – | – | – | – | –
CC(C)=CCC[C@](C)(O[C@@H]1O[C@H](CO)[C@@H](O)[C@H](O)[C@H]1O)C1CC[C@]2(C)C1CCC1[C@@]3(C)CC[C@H](O)C(C)(C)C3CC[C@]12C (stereo partly drawn) [DMG, 20S-O-β-(D-glucosyl)-dammarenediol II] | 1.76 ± 0.28 µM | strong inhibition | – | Competitive | 2400 nM | Mixed | strong inhibition | 1.06 ± 0.21 µM | 2830 nM | – | –
CC(C)=CCC[C@](C)(O)[C@H]1CC[C@]2(C)[C@@H]1[C@H](O)C[C@@H]1[C@@]3(C)CC[C@H](O)C(C)(C)[C@@H]3CC[C@]12C [PPD, protopanaxadiol] | > 100 µM | strong or moderate inhibition | > 75.18 | – | – | Mixed | – | – | – | – | –
CC(C)=CCC[C@](C)(O)[C@H]1CC[C@]2(C)[C@@H]1[C@H](O)C[C@@H]1[C@@]3(C)CC[C@H](O)C(C)(C)[C@@H]3[C@@H](O)C[C@]12C [PPT, protopanaxatriol] | > 100 µM | strong or moderate inhibition | > 116.28 | – | – | Mixed | – | – | – | – | –
CC(C)=CCC[C@](C)(O)[C@H]1CC[C@]2(C)[C@@H]1[C@H](O)C[C@@H]1[C@@]3(C)CC[C@H](O)C(C)(C)[C@@H]3[C@@H](O[C@@H]3O[C@H](CO)[C@@H](O)[C@H](O)[C@H]3O)C[C@]12C [Rh1, ginsenoside Rh1] | – | – | – | – | – | – | – | – | – | > 100 µM | > 100 µM
CC(C)=CCC[C@](C)(O)[C@H]1CC[C@]2(C)[C@@H]1[C@H](O)C[C@@H]1[C@@]3(C)CC[C@H](O[C@@H]4O[C@H](CO)[C@@H](O)[C@H](O)[C@H]4O)C(C)(C)[C@@H]3CC[C@]12C [Rh2] | – | – | > 18.86 | – | – | – | – | – | – | > 100 µM | –
CC1(C)CCC2(C(=O)OC3OC(CO)C(O)C(O)C3O)CCC3(C)C(=CCC4C5(C)CCC(OC6OC(C(=O)O)C(O)C(O)C6OC6OC(CO)C(O)C(O)C6O)C(C)(C)C5CCC43C)C2C1 (stereo not shown) [Ro] | > 100 µM | – | – | – | – | – | – | > 100 µM | – | – | –
